For 16 compounds, Ki and IC50 results are on record in patent US8129366B2, “VLA-4 inhibitory drug” (Daiichi Sankyo Company, Limited, priority 2005, dated 2012).

The test has as its target T1, hα4 and β1 integrins (Homo sapiens, UniProt P05556+P13612).
T1 construct: expressed in transfected cells; host or cells: CHO cells
Briefly: In vitro inhibition of binding between CHO cells expressing hα4 and β1 integrins and Eu3+-hVCAM-1 D1D7-IgG. The following applies: for Ki: CHO cells expressing hα4 and β1 integrins, Eu3+-hVCAM-1 D1D7-IgG ligand, without HSA; for IC50: in the presence of 3% human serum albumin (HSA final concentration 3%). As to the method: CHO cells which forcibly expressed hα4 and β1 integrins through transfection thereof, were inoculated into a Costar 3599 plate (3×10^4 cells/100 μl/well), and cultured for two days. The cells in the wells were washed two times with buffer A*, and then Eu^3+-hVCAM-1 D1D7-IgG diluted with assay buffer** to 2 nM was added in an amount of 50 μl/well. The substance under test diluted with 26 DMSO-assay buffer (in the co-presence or absence of 6% human serum albumin) was added in an amount of 50 μl/well (adding separately diluted solution to the wells for performing Scatchard analysis), the contents were stirred for 5 minutes with a plate mixer, and then the plate was left to stand still for one hour at room temperature. The binding inhibitory activity in the presence of human serum albumin (HSA) was examined by diluting the specimen with 26 DMSO-assay buffer containing 6% HSA (SIGMA Corp., c/n A-1653), and adding the resultant (HSA final concentration 3%). After 30 to 60 minutes of the addition of specimen, the plate contents were washed 4 times with buffer A at 4° C., an enhancing reagent (DELFIA SA) was added in an amount of 100 μl/well, and the plate was shaken for 5 minutes using a plate mixer. Subsequently, the fluorescence intensity was measured with a time-resolved fluorometer (DELFIA Wallac). The IC50 of the substance under test (the concentration for 50% inhibition of the binding between CHO cells and Eu^3+-hVCAM-1 D1D7-IgG) was determined from the binding rate obtained from the calculating expression of [(FT−FNS)−(FI−FNS)]/[(FT−FNS)]×100. Here, FT represents the fluorescence intensity of a well not containing the substance under test; FNS represents the fluorescence intensity of a well not containing the substance under test and hVCAM-1 D1D7-IgG; and FI represents the fluorescence intensity of a well containing the substance under test. The Kd value which represents the strength of binding, and Bmax (maximum binding amount) were estimated to be in the range of 0.06 to 20 nM according to the Scatchard analysis method. The evaluation results of the Ki value of the substance under test, and of the IC50 value in the presence of 3% HSA are presented in Tables 2 to 7.
The Ki value was calculated according to the above-described expression. ([L] is the ligand concentration)
[* buffer A: 25 mM HEPES (pH 7.5), 150 mM NaCl, 1 mM Ca^2+, 1 mM Mg^2+, 4 mM Mn2+;
** assay buffer: 25 mM HEPES (pH=7.5), 150 mM NaCl, 1 mM Ca^2+, 1 mM Mg^2+, 4 mM Mn^2+, 0.1% BSA, 20 μM DTPA, with/without 6% ALBUMIN, HUMAN SERUM (C/N A-1653, SIGMA)]

Each structure is given as a SMILES string.

T1 sequence (P13612 34-1032): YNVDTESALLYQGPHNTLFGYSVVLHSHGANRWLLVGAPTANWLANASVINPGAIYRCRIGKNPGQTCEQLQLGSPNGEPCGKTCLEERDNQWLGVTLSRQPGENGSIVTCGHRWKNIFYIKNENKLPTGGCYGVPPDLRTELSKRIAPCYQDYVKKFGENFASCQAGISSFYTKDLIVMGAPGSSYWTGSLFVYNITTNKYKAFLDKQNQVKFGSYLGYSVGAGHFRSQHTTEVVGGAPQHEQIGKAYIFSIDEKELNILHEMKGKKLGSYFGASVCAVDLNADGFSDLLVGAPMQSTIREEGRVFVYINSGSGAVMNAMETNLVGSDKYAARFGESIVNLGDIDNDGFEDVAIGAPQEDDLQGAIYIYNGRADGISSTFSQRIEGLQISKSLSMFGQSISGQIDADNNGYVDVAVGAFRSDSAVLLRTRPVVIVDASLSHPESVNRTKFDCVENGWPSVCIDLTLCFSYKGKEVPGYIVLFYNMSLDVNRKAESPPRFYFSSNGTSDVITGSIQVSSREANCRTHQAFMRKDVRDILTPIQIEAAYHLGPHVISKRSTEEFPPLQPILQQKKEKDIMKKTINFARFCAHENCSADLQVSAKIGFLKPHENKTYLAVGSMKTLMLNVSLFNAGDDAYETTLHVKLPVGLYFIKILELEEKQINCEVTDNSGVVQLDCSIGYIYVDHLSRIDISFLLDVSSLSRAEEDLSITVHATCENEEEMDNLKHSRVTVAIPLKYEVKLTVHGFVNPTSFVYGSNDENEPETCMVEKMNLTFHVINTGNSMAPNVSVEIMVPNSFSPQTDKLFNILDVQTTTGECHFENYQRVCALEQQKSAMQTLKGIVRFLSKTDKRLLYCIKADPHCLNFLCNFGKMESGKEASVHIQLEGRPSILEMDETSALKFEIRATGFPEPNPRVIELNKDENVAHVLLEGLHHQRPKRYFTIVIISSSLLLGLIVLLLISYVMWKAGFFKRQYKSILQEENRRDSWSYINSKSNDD
T1 sequence (P05556 21-798): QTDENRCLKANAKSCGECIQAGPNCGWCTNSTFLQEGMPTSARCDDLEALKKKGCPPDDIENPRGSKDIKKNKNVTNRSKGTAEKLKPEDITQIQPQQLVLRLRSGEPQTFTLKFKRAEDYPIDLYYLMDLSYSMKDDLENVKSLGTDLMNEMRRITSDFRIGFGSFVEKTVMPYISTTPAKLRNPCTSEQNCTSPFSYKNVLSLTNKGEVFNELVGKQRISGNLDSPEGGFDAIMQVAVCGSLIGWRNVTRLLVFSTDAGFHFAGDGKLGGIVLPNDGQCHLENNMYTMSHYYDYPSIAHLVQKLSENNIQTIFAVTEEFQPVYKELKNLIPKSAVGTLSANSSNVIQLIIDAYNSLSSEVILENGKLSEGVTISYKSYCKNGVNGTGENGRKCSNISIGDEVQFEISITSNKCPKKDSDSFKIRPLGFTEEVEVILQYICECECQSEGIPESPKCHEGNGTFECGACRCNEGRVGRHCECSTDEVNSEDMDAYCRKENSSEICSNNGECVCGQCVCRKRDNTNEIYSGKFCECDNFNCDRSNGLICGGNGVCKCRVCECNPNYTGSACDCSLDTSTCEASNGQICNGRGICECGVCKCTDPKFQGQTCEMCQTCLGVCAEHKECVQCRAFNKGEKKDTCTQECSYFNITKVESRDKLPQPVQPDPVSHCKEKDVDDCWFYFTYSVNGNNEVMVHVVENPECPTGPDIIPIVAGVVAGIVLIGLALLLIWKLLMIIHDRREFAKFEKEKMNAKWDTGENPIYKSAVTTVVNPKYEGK

Broadly, the Ki is the equilibrium dissociation constant of an inhibitor or competing ligand from its target. The IC50 is the concentration that inhibits the measured activity by half. As to `CO[C@H]1CN([C@H]2C[C@@H](CO[C@H]3CC[C@H](C(=O)O)CC3)N(C(=O)Cc3cc(Cl)c(NC(=O)c4cn(C)c5ccccc45)cc3F)C2)C[C@H]1OC` [Example 55, Trans-4-[1-[[5-chloro-2-fluoro-4-[(1-methyl-1H-indol-3-ylcarbonyl)amino]phenyl]acetyl]-(4S)-(cis-3,4-dimethoxypyrrolidin-1-yl)-(2S)-pyrrolidinylmethoxy]cyclohexanecarboxylic acid], the inhibition constant (Ki) amounted to 2.6 nM and the IC50 came to 9.2 nM.

Take `CO[C@H]1CN([C@H]2C[C@@H](CO[C@H]3CC[C@H](C(=O)O)CC3)N(C(=O)Cc3cc(Cl)c(NC(=O)c4cn(C)c5ccccc45)cc3Cl)C2)C[C@H]1OC` [Example 56, Trans-4-[1-[[2,5-dichloro-4-[(1-methyl-1H-indol-3-ylcarbonyl)amino]phenyl]acetyl]-(4S)-(cis-3,4-dimethoxypyrrolidin-1-yl)-(2S)-pyrrolidinylmethoxy]cyclohexanecarboxylic acid]: the Ki was 2.4 nM and the IC50 was 9.2 nM.

`CO[C@H]1CN([C@H]2C[C@@H](CO[C@H]3CC[C@H](C(=O)O)CC3)N(C(=O)Cc3cc(Cl)c(NC(=O)c4csc5ccccc45)cc3F)C2)C[C@H]1OC` [Example 57, Trans-4-[1-[[4-[(benzo[b]thiophen-3-ylcarbonyl)amino]-5-chloro-2-fluorophenyl]acetyl]-(4S)-(cis-3,4-dimethoxypyrrolidin-1-yl)-(2S)-pyrrolidinylmethoxy]cyclohexanecarboxylic acid]: the inhibition constant (Ki) was determined as 1.4 nM and the IC50 is 6.2 nM.

`CO[C@H]1CN([C@H]2C[C@@H](CO[C@H]3CC[C@H](C(=O)O)CC3)N(C(=O)Cc3cc(Cl)c(NC(=O)c4coc5ccccc45)cc3F)C2)C[C@H]1OC` [Example 59, Trans-4-[1-[[4-[(benzo[b]furan-3-ylcarbonyl)amino]-5-chloro-2-fluorophenyl]acetyl]-(4S)-(cis-3,4-dimethoxypyrrolidin-1-yl)-(2S)-pyrrolidinylmethoxy]cyclohexanecarboxylic acid]: the Ki worked out at 3 nM and the IC50 stood at 8.1 nM.

On to `CO[C@H]1CN([C@H]2C[C@@H](CO[C@H]3CC[C@H](C(=O)O)CC3)N(C(=O)Cc3ccc(NC(=O)c4nn(C)c5ccccc45)c(Cl)c3)C2)C[C@H]1OC` [Example 62, Trans-4-[1-[[4-[(1-methyl-1H-indazol-3-ylcarbonyl)amino]-3-chlorophenyl]acetyl]-(4S)-(cis-3,4-dimethoxypyrrolidin-1-yl)-(2S)-pyrrolidinylmethoxy]cyclohexanecarboxylic acid], for which the affinity corresponds to a Ki of 3.2 nM and the 50% inhibitory concentration (IC50) is 10 nM.

Take `CO[C@@H]1CN([C@H]2C[C@@H](CO[C@H]3CC[C@H](C(=O)O)CC3)N(C(=O)Cc3cc(Cl)c(NC(=O)c4cn(C)c5ccccc45)cc3Cl)C2)C[C@H]1OC` [Example 64, Trans-4-[1-[[2,5-dichloro-4-[(1-methyl-1H-indol-3-ylcarbonyl)amino]phenyl]acetyl]-(4S)-[(3R,4R)-dimethoxypyrrolidin-1-yl]-(2S)-pyrrolidinylmethoxy]cyclohexanecarboxylic acid]: the Ki was 5 nM and the IC50 came to 33 nM.

Take `CO[C@@H]1CN([C@H]2C[C@@H](CO[C@H]3CC[C@H](C(=O)O)CC3)N(C(=O)Cc3cc(Cl)c(NC(=O)c4coc5ccccc45)cc3Cl)C2)C[C@H]1OC` [Example 65, Trans-4-[1-[[4-[(benzo[b]furan-3-ylcarbonyl)amino]-2,5-dichlorophenyl]acetyl]-(4S)-[(3R,4R)-dimethoxypyrrolidin-1-yl]-(2S)-pyrrolidinylmethoxy]cyclohexanecarboxylic acid]: the Ki came to 2.9 nM and the IC50 is 35 nM.

In the case of `O=C(Nc1cc(F)c(CC(=O)N2C[C@@H](n3ccnc3)C[C@H]2CO[C@H]2CC[C@H](C(=O)O)CC2)cc1Cl)c1csc2ccccc12` [Example 67, Trans-4-[1-[[4-[(benzo[b]thiophen-3-ylcarbonyl)amino]-5-chloro-2-fluorophenyl]acetyl]-(4S)-(imidazol-1-yl)-(2S)-pyrrolidinylmethoxy]cyclohexanecarboxylic acid], the inhibition constant (Ki) was found to be 1.2 nM and the IC50 was 12 nM.

In the case of `O=C(Nc1cc(Cl)c(CC(=O)N2C[C@@H](n3ccnc3)C[C@H]2CO[C@H]2CC[C@H](C(=O)O)CC2)cc1Cl)c1csc2ccccc12` [Example 68, Trans-4-[1-[[4-[(benzo[b]thiophen-3-ylcarbonyl)amino]-2,5-dichlorophenyl]acetyl]-(4S)-(imidazol-1-yl)-(2S)-pyrrolidinylmethoxy]cyclohexanecarboxylic acid], the Ki was 2.1 nM and the IC50 came to 30 nM.

`Cn1cc(C(=O)Nc2cc(F)c(CC(=O)N3C[C@@H](N4CCCO4)C[C@H]3CO[C@H]3CC[C@H](C(=O)O)CC3)cc2Cl)c2ccccc21` [Example 69, Trans-4-[1-[[5-chloro-2-fluoro-4-[(1-methyl-1H-indol-3-ylcarbonyl)amino]phenyl]acetyl]-(4S)-(isoxazolidin-2-yl)-(2S)-pyrrolidinylmethoxy]cyclohexanecarboxylic acid]: the Ki is 6.1 nM and the IC50 was found to be 66 nM.

Turning to `O=C(Nc1cc(F)c(CC(=O)N2C[C@@H](N3CCCS3(=O)=O)C[C@H]2CO[C@H]2CC[C@H](C(=O)O)CC2)cc1Cl)c1coc2ccccc12` [Example 70, Trans-4-[1-[[4-[(benzo[b]furan-3-ylcarbonyl)amino]-5-chloro-2-fluorophenyl]acetyl]-(4S)-(1,1-dioxo-1λ^6-isothiazolidin-2-yl)-(2S)-pyrrolidinylmethoxy]cyclohexanecarboxylic acid], the affinity corresponds to a Ki of 18 nM and the IC50 amounted to 62 nM.

As for `O=C(Nc1cc(F)c(CC(=O)N2C[C@@H](N3C[C@H]4C[C@H]4C3)C[C@H]2CO[C@H]2CC[C@H](C(=O)O)CC2)cc1Cl)c1csc2ccccc12` [Example 71, Trans-4-[1-[[4-[(benzo[b]thiophen-3-ylcarbonyl)amino]-5-chloro-2-fluorophenyl]acetyl]-(4S)-[3-azabicyclo[3.1.0]hexan-3-yl]-(2S)-pyrrolidinylmethoxy]cyclohexanecarboxylic acid], the Ki was found to be 7.5 nM and the IC50 came out at 28 nM.

For `CC1(C)O[C@H]2CN([C@H]3C[C@@H](CO[C@H]4CC[C@H](C(=O)O)CC4)N(C(=O)Cc4cc(Cl)c(NC(=O)c5csc6ccccc56)cc4Cl)C3)C[C@H]2O1` [Example 75, Trans-4-[1-[[4-[(benzo[b]thiophen-3-ylcarbonyl)amino]-2,5-dichlorophenyl]acetyl]-(4S)-[(3a,6a-cis)-2,2-dimethyltetrahydro[1,3]dioxo[4,5-c]pyrrol-5-yl]-(2S)-pyrrolidinylmethoxy]cyclohexanecarboxylic acid], the Ki is 0.52 nM and the half-maximal inhibitory concentration (IC50) is 12 nM.

In the case of `O=C(Nc1cc(F)c(CC(=O)N2C[C@@H](N3C[C@@H]4CS(=O)(=O)C[C@@H]4C3)C[C@H]2CO[C@H]2CC[C@H](C(=O)O)CC2)cc1Cl)c1coc2ccccc12` [Example 77, Trans-4-[1-[[4-[(benzo[b]furan-3-ylcarbonyl)amino]-5-chloro-2-fluorophenyl]acetyl]-(4S)-[(3a,6a-cis)-hexahydro-2,2-dioxo-2λ^6-thieno[3,4-c]pyrrol-5-yl]-(2S)-pyrrolidinylmethoxy]cyclohexanecarboxylic acid], the affinity corresponds to a Ki of 2 nM and the IC50 is 4.1 nM.

Consider `C[C@@H]1CN([C@H]2C[C@@H](CO[C@H]3CC[C@H](C(=O)O)CC3)N(C(=O)Cc3cc(Cl)c(NC(=O)c4csc5ccccc45)cc3F)C2)C[C@H](C)O1` [Example 79, Trans-4-[1-[[4-[(benzo[b]thiophen-3-ylcarbonyl)amino]-5-chloro-2-fluorophenyl]acetyl]-(4S)-(cis-2,6-dimethylmorpholin-4-yl)-(2S)-pyrrolidinylmethoxy]cyclohexanecarboxylic acid], for which the inhibitory constant (Ki) was 0.74 nM and the half-maximal inhibitory concentration (IC50) stood at 4.1 nM.

Consider `C[C@@H]1CN([C@H]2C[C@@H](CO[C@H]3CC[C@H](C(=O)O)CC3)N(C(=O)Cc3cc(Cl)c(NC(=O)c4cn(C)c5ccccc45)cc3F)C2)C[C@H](C)O1` [Example 81, Trans-4-[1-[[5-chloro-2-fluoro-4-[(1-methyl-1H-indol-3-ylcarbonyl)amino]phenyl]acetyl]-(4S)-(cis-2,6-dimethylmorpholin-4-yl)-(2S)-pyrrolidinylmethoxy]cyclohexanecarboxylic acid], for which the affinity, expressed as Ki, was 3 nM and the IC50 was 12 nM.
